Target: human FPR2 receptor (Homo sapiens (Human), UniProt P25090)
Experiment: FLIPR Ca+2 response in HEK-Gα16 cells stably expressing the human FPR2 receptor
Type: cell-based
Design: FPR2 (% eff): unit not given here
Details: Table 4; for FPR2 (% eff): value in brackets, given mostly as fraction
Method: FLIPR: HEK-Gα16 cells stably expressing the human FPR2 receptor was utilized. Cells were plated into 384-well poly-D-lysine coated plates at a density of 18,000 cells per well one day prior to use. The growth media was DMEM medium supplemented with 10% fetal bovine serum (FBS), 1% antibiotic-antimycotic, 50 μg/ml hygromycin, and 400 μg/ml geneticin. On the day of the experiment, the cells were washed twice with Hank's Balanced Salt Solution supplemented with 20 mM HEPES (HBSS/hepes buffer). The cells were then dye loaded with 2 μM Fluo-4 diluted in the HBSS/Hepes buffer and incubated at 37° C. for 40 minutes. Extracellular dye was removed by washing the cell plates four times prior to placing the plates in the FLIPR (Fluorometric Imaging Plate Reader, Molecular Devices). Ligands were diluted in HBSS/Hepes buffer and prepared in 384-well microplates. Data for Ca^+2 responses were obtained in relative fluorescence units.

Sequence of human FPR2 receptor (P25090 whole entry): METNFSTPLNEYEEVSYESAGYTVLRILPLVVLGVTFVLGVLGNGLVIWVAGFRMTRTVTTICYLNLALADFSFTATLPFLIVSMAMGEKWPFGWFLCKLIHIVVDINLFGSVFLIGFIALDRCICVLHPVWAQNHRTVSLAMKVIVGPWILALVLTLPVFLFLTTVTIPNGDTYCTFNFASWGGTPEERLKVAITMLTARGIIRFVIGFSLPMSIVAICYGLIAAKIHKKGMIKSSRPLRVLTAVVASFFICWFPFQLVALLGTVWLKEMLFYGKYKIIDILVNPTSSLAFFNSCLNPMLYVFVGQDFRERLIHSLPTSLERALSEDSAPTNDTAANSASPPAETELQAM

FPR2 (% eff) | EC50 [nM] | SMILES
0.99 | – | O=C(O)CNC(=O)[C@H](Cc1ccccc1)NC(=O)Nc1ccc(Br)cc1 [Compound 55, {[(2S)-2-{[(4-bromophenyl)carbamoyl]amino}-3-phenylpropanoyl]amino} acetic acid]
0.98 | – | O=C(O)CCNC(=O)[C@H](Cc1ccccc1)NC(=O)Nc1ccc(Br)cc1 [Compound 56, 3-{[(2S)-2-{[(4-bromophenyl)carbamoyl]amino}-3-phenylpropanoyl]amino} propanoic acid]
0.86 | – | O=C(Nc1ccc(Br)cc1)N[C@@H](Cc1ccccc1)C(=O)NCCO [Compound 58, (2S)-2-{[(4-bromophenyl)carbamoyl]amino}-N-(2-hydroxyethyl)-3-phenylpropanamide]
0.91 | – | CC[C@H](C)[C@H](NC(=O)Nc1ccc(Br)cc1)C(=O)NCC(N)=O [Compound 60, (2S,3S)-N-(2-amino-2-oxoethyl)-2-{[(4-bromophenyl)carbamoyl]amino}-3-methylpentanamide]
100 | 10.3 | CC[C@H](C)[C@H](NC(=O)Nc1ccc(Br)cc1F)C(=O)NCC(N)=O [Compound 62, (2S,3S)-N-(2-amino-2-oxoethyl)-2-{[(4-bromo-2-fluorophenyl)carbamoyl]amino}-3-methylpentanamide]
0.97 | – | CC[C@H](C)[C@H](NC(=O)Nc1ccc(Br)cc1)C(=O)NCC(C)=O [Compound 63, (2S,3S)-2-{[(4-bromophenyl)carbamoyl]amino}-3-methyl-N-(2-oxopropyl)pentanamide]
1.0 | – | CCC[C@H](NC(=O)Nc1ccc(Br)cc1)C(=O)O [Compound 70, (2S)-2-{[(4-bromophenyl)carbamoyl]amino}pentanoic acid]
0.86 | – | CCC[C@H](NC(=O)Nc1ccc(Br)cc1)C(=O)NCC(=O)OC [Compound 72, methyl {[(2S)-2-{[(4-bromophenyl)carbamoyl]amino}pentanoyl]amino}acetate]
1.0 | – | CCC[C@H](NC(=O)Nc1ccc(Br)cc1)C(=O)NCC(=O)OC(C)C [Compound 73, propan-2-yl {[(2S)-2-{[(4-bromophenyl)carbamoyl]amino}pentanoyl]amino}acetate]
0.91 | – | CCC[C@H](NC(=O)Nc1ccc(Br)cc1F)C(=O)NCC(=O)O [Compound 74, {[(2S)-2-{[(4-bromo-2-fluorophenyl)carbamoyl]amino}pentanoyl]amino}acetic acid]
0.76 | – | CC(C)C[C@H](NC(=O)Nc1ccc(Br)cc1)C(=O)NCCO [Compound 75, (2S)-2-{[(4-bromophenyl)carbamoyl]amino}-N-(2-hydroxyethyl)-4-methylpentanamide]
1.0 | 1.1 | CC(C)C[C@H](NC(=O)Nc1ccc(Br)cc1)C(=O)NCC(N)=O [Compound 77, (2S)-N-(2-amino-2-oxoethyl)-2-{[(4-bromophenyl)carbamoyl]amino}-4-methylpentanamide]
0.82 | – | CC(=O)CNC(=O)[C@H](CC(C)C)NC(=O)Nc1ccc(Br)cc1 [Compound 78, (2S)-2-{[(4-bromophenyl)carbamoyl]amino}-4-methyl-N-(2-oxopropyl)pentanamide]

Second part, the compound before the results:

SMILES | FPR2 (% eff) | EC50 [nM]
CSc1ccc(NC(=O)Nc2ccc3c(c2)C(=O)N(CCCN)C(C)C3)cc1 (stereo not drawn) [Compound 42, 1-[2-(3-aminopropyl)-3-methyl-1-oxo-1,2,3,4-tetrahydroisoquinolin-7-yl]-3-[4-(methylsulfanyl)phenyl]urea] | 1.00 | –
N#Cc1ccc(C2Cc3ccc(NC(=O)Nc4ccc(I)cc4)cc3C(=O)N2CCCN)cc1 (stereo not drawn) [Compound 43, 1-[2-(3-aminopropyl)-3-(4-cyanophenyl)-1-oxo-1,2,3,4-tetrahydroisoquinolin-7-yl]-3-(4-iodophenyl)urea] | 0.94 | –
CNC(=O)C1C(C(=O)Nc2ccc(Br)cc2)C2CCC1C21CC1 (stereo not drawn) [Compound 46, N-(4-bromophenyl)-N′-methylspiro[bicyclo[2.2.1]heptane-7,1′-cyclopropane]-2,3-dicarboxamide] | 1.0 | –
CCNC(=O)C1C(C(=O)Nc2ccc(Br)cc2)C2CCC1C21CC1 (stereo not drawn) [Compound 47, N-(4-bromophenyl)-N′-ethylspiro[bicyclo[2.2.1]heptane-7,1′-cyclopropane]-2,3-dicarboxamide] | 1.0 | –
CC(C)NC(=O)C1C(C(=O)Nc2ccc(Br)cc2)C2CCC1C21CC1 (stereo not drawn) [Compound 48, N-(4-bromophenyl)-N′-(propan-2-yl)spiro[bicyclo[2.2.1]heptane-7,1′-cyclopropane]-2,3-dicarboxamide] | 1.0 | –
CCC1(CC)NC(=O)N(NC(=O)Nc2ccc(Br)cc2)C1=O [Compound 49, 1-(4-bromophenyl)-3-(4,4-diethyl-2,5-dioxoimidazolidin-1-yl)urea] | 0.98 | –
CCC1(CC)NC(=O)N(NC(=O)Nc2ccc(Br)cc2F)C1=O [Compound 50, 1-(4-bromo-2-fluorophenyl)-3-(4,4-diethyl-2,5-dioxoimidazolidin-1-yl)urea] | 1.0 | –
O=C(Nc1ccc(Br)cc1)NN1C(=O)NC2(CCCCC2)C1=O [Compound 52, 1-(4-bromophenyl)-3-(2,4-dioxo-1,3-diazaspiro[4.5]dec-3-yl)urea] | 1.0 | –
CC[C@H](C)[C@H](NC(=O)Nc1ccc(Br)cc1F)C(=O)NCC(=O)O [Compound 59, {[(2S,3S)-2-{[(4-bromo-2-fluorophenyl)carbamoyl]amino}-3-methylpentanoyl]amino} acetic acid] | 0.95 | –
CCC1(C(C)C)NC(=O)N(NC(=O)Nc2ccc(Br)cc2F)C1=O (stereo not drawn) [Compound 61, 1-(4-bromo-2-fluorophenyl)-3-[4-ethyl-2,5-dioxo-4-(propan-2-yl)imidazolidin-1-yl]urea] | 0.97 | –
CC(C)C1(C(C)C)NC(=O)N(NC(=O)Nc2ccc(Br)cc2)C1=O [Compound 64, 1-(4-bromophenyl)-3-[2,5-dioxo-4,4-di(propan-2-yl)imidazolidin-1-yl]urea] | 1.0 | –
O=C(Nc1ccc(Br)cc1)NN1C(=O)NC(C2CC2)(C2CC2)C1=O [Compound 65, 1-(4-bromophenyl)-3-(4,4-dicyclopropyl-2,5-dioxoimidazolidin-1-yl)urea] | 1.0 | –
CC(=O)CNC(=O)[C@H](Cc1ccccc1)NC(=O)Nc1ccc(Br)cc1F [Compound 68, (2S)-2-{[(4-bromo-2-fluorophenyl)carbamoyl]amino}-N-(2-oxopropyl)-3-phenylpropanamide] | 0.94 | 12.4
CCC1(CCc2ccccc2)NC(=O)N(NC(=O)Nc2ccc(Br)cc2F)C1=O (stereo not drawn) [Compound 69, 1-(4-bromo-2-fluorophenyl)-3-[4-ethyl-2,5-dioxo-4-(2-phenylethyl)imidazolidin-1-yl]urea] | 0.91 | –
O=C(Nc1ccc(Br)cc1F)N[C@@H](Cc1ccccc1)C(=O)NCCO [Compound 71, (2S)-2-{[(4-bromo-2-fluorophenyl)carbamoyl]amino}-N-(2-hydroxyethyl)-3-phenylpropanamide] | 0.98 | 15.6
CC1(CCc2ccco2)NC(=O)N(NC(=O)Nc2ccc(Br)cc2)C1=O (stereo not drawn) [Compound 76, 1-(4-bromophenyl)-3-{4-[2-(furan-2-yl)ethyl]-4-methyl-2,5-dioxoimidazolidin-1-yl}urea] | 0.99 | –

— patent publication US10434112B2, “Use of agonists of formyl peptide receptor 2 for treating dermatological diseases” (Allergan, Inc., priority 2013, dated 2019)
